Experimental data published in US10758534B2 (Vertex Pharmaceuticals Incorporated, priority 2014, dated 2020).
Where two headings read alike, the source gives them in different places.

Target: T1, F508del (Homo sapiens, UniProt P13569, DEL508-508)
T1 construct: expressed in transfected cells
Test: Protocol 2: FRET membrane potential optical assay (VIPR), identification of correction compounds
Format: cell-based
Summary of the method: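 Correction of the F508del trafficking defect is scored as forskolin (10 μM)/genistein (20 μM)-stimulated Cl^− efflux in NIH3T3 mouse fibroblasts after a 16 hr, 37° C. compound exposure. Depolarization was followed optically using voltage-sensing FRET dyes.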

[1] = Table 3, compounds of Table 1 as modulators of CFTR activity, protocol not stated
[2] = F508del CFTR modulator activity, compounds of Table 1, read-out: EC30

T1 sequence (P13569 with tags, fused parts or gaps DEL508-508): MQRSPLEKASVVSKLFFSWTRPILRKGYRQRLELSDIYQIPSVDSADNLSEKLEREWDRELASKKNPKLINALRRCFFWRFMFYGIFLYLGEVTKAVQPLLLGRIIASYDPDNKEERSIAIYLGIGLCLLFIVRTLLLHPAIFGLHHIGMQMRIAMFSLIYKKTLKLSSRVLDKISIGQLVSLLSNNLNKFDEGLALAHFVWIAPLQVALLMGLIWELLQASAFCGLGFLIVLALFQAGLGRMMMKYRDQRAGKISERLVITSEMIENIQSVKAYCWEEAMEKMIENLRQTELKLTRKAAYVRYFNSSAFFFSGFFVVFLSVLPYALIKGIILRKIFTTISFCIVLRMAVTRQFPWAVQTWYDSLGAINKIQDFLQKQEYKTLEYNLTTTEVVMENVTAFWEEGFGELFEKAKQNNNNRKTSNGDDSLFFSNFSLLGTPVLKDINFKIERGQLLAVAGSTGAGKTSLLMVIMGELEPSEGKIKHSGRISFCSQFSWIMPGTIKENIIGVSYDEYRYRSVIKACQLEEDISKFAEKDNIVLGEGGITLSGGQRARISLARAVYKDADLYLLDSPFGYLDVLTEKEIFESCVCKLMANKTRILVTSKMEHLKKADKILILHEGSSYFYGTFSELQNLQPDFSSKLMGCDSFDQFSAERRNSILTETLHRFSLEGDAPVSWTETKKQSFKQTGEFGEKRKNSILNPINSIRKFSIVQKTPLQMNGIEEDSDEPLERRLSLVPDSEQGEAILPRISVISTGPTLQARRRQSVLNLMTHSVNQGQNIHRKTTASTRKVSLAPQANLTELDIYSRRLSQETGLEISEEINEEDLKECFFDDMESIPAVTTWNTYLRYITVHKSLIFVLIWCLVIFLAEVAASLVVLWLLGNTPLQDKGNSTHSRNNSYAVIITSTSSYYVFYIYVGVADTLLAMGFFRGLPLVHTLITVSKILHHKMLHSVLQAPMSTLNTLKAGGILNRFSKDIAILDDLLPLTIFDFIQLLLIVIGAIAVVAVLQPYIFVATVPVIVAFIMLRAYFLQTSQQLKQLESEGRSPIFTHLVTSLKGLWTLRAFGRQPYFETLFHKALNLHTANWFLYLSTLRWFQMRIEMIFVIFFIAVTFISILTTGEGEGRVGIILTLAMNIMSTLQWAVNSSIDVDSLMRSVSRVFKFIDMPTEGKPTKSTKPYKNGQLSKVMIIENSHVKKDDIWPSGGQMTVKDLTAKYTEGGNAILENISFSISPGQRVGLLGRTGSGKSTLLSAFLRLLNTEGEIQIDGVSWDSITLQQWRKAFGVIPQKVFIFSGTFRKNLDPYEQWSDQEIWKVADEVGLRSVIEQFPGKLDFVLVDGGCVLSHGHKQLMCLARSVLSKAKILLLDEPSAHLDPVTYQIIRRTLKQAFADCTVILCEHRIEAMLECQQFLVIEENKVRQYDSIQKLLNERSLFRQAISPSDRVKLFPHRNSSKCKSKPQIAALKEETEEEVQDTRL

Structure (SMILES)	EC30 [1]	EC30 [2] [nM]
C[C@@H]1CC[C@H](C)N1c1nc(-c2ccc(Cl)cc2)ccc1C(=O)NS(=O)(=O)c1cccc(N)n1 [Compound 459, N-[(6-amino-2-pyridyl)sulfonyl]-6-(4-chlorophenyl)-2-[(2S,5R)-2,5-dimethylpyrrolidin-1-yl]pyridine-3-carboxamide]	+++ (“+++” means <3 uM)	–
Cc1cc(C)c(Oc2nc(C(C)(C)C)ccc2C(=O)NS(=O)(=O)c2ccnc(N)c2)c(C)c1 [Compound 283, N-[(2-amino-4-pyridyl)sulfonyl]-6-tert-butyl-2-(2,4,6-trimethylphenoxy)pyridine-3-carboxamide]	+++ (“+++” means <3 uM)	–
Cc1cc(C)c(Cn2c(C(=O)NS(=O)(=O)c3ccccc3)cc3cc(F)ccc32)c(C)c1 [Compound 33, N-(benzenesulfonyl)-5-fluoro-1-[(2,4,6-trimethylphenyl)methyl]indole-2-carboxamide]	+++ (“+++” means <3 uM)	–
CC(C)CC(C)Oc1cc(-c2ccc(C(=O)NS(=O)(=O)c3cccc(N)n3)c(N3CC(C)CC3(C)C)n2)ccn1 (stereo not drawn) [Compound 384, N-[(6-amino-2-pyridyl)sulfonyl]-6-[2-(1,3-dimethylbutoxy)-4-pyridyl]-2-(2,2,4-trimethylpyrrolidin-1-yl)pyridine-3-carboxamide]	+++ (“+++” means <3 uM)	–
C[C@@H]1CN(c2nc(-c3cccc(F)c3F)ccc2C(=O)NS(=O)(=O)N2CC[C@H](N)C2)C(C)(C)C1 [Compound 2110, N-[(3S)-3-aminopyrrolidin-1-yl]sulfonyl-6-(2,3-difluorophenyl)-2-[(4S)-2,2,4-trimethylpyrrolidin-1-yl]pyridine-3-carboxamide]	–	> 10000
CC(C)Oc1ccc(-c2ccc(C(=O)NS(=O)(=O)c3cccc(N)n3)c(N3C[C@@H]4CC[C@H]3C4)n2)cn1 [Compound 476, N-[(6-amino-2-pyridyl)sulfonyl]-2-[(1R,4S)-3-azabicyclo[2.2.1]heptan-3-yl]-6-(6-isopropoxy-3-pyridyl)pyridine-3-carboxamide]	++ (“++” means between 3 uM and 10 uM)	–
Cc1cc(C)c(C(C)n2nc(C(C)(C)C)cc2C(=O)NS(=O)(=O)c2ccccc2)c(C)c1 (stereo not drawn) [Compound 201, N-(benzenesulfonyl)-5-tert-butyl-2-[1-(2,4,6-trimethylphenyl)ethyl]pyrazole-3-carboxamide]	+++ (“+++” means <3 uM)	–
CC(C)COc1cc(F)cc(-c2ccc(C(=O)NS(=O)(=O)c3cccc(N)n3)c(N3CCCC(C)C3)n2)c1 (stereo not drawn) [Compound 735, N-[(6-amino-2-pyridyl)sulfonyl]-6-(3-fluoro-5-isobutoxy-phenyl)-2-(3-methyl-1-piperidyl)pyridine-3-carboxamide]	+++ (“+++” means <3 uM)	–
CC1CN(c2nc(-c3cccc(OC(C)C)n3)ccc2C(=O)NS(=O)(=O)c2cccc(N)n2)C(C)(C)C1 (stereo not drawn) [Compound 708, N-[(6-amino-2-pyridyl)sulfonyl]-6-(6-isopropoxy-2-pyridyl)-2-(2,2,4-trimethylpyrrolidin-1-yl)pyridine-3-carboxamide]	+++ (“+++” means <3 uM)	–
CC(C)COc1cc(F)cc(-c2ncc(C(=O)NS(=O)(=O)c3cccc(N)n3)c(N3C[C@@H](C)CC3(C)C)n2)c1 [Compound 2121, N-[(6-amino-2-pyridyl)sulfonyl]-2-(3-fluoro-5-isobutoxy-phenyl)-4-[(4S)-2,2,4-trimethylpyrrolidin-1-yl]pyrimidine-5-carboxamide]	–	< 3000
CC(C)COc1cc(F)cc(-c2ccc(C(=O)NS(=O)(=O)c3cccc(N)n3)c(N3CC4CCC3C4)n2)c1 (stereo not drawn) [Compound 680, N-[(6-amino-2-pyridyl)sulfonyl]-2-(3-azabicyclo[2.2.1]heptan-3-yl)-6-(3-fluoro-5-isobutoxy-phenyl)pyridine-3-carboxamide]	+++ (“+++” means <3 uM)	–
CC1CN(c2ncccc2C(=O)NS(=O)(=O)c2cccc(Oc3cccc(C(C)C)c3)n2)C(C)(C)C1 (stereo not drawn) [Compound 2108, N—[[6-(3-isopropylphenoxy)-2-pyridyl]sulfonyl]-2-(2,2,4-trimethylpyrrolidin-1-yl)pyridine-3-carboxamide]	–	< 3000
C[C@@H]1CN(c2nc(-c3cccc(C(F)(F)F)c3)ccc2C(=O)NS(=O)(=O)c2cccnc2N)C(C)(C)C1 [Compound 2593, N-[(2-amino-3-pyridyl)sulfonyl]-6-[3-(trifluoromethyl)phenyl]-2-[(4S)-2,2,4-trimethylpyrrolidin-1-yl]pyridine-3-carboxamide]	–	< 3000
CCOc1ncc(-c2ccc(C(=O)NS(=O)(=O)c3cccnc3N)c(N3C[C@@H](C)CC3(C)C)n2)cc1C [Compound 2651, N-[(2-amino-3-pyridyl)sulfonyl]-6-(6-ethoxy-5-methyl-3-pyridyl)-2-[(4S)-2,2,4-trimethylpyrrolidin-1-yl]pyridine-3-carboxamide]	–	< 3000

Next, values leading:

EC30 [1]	EC30 [2] [nM]	Structure (SMILES)
–	< 3000	CCOc1cc(C)cc(-c2ccc(C(=O)NS(=O)(=O)c3ccc[nH]c3=O)c(N3C[C@@H](C)CC3(C)C)n2)c1 [Compound 2512, 6-(3-ethoxy-5-methyl-phenyl)-N-[(2-oxo-1H-pyridin-3-yl)sulfonyl]-2-[(4S)-2,2,4-trimethylpyrrolidin-1-yl]pyridine-3-carboxamide]
–	< 3000	CC1CN(c2ncccc2C(=O)NS(=O)(=O)c2cccc(OCC(C)(C)n3cccc3)n2)C(C)(C)C1 (stereo not drawn) [Compound 2137, N—[[6-(2-methyl-2-pyrrol-1-yl-propoxy)-2-pyridyl]sulfonyl]-2-(2,2,4-trimethylpyrrolidin-1-yl)pyridine-3-carboxamide]
–	3000 to 10000	C[C@@H]1CN(c2ncccc2C(=O)NS(=O)(=O)N2CC[C@@H](NCCCc3ccc(Cl)cc3)C2)C(C)(C)C1 [Compound 2710]
++ (“++” means between 3 uM and 10 uM)	–	COc1ccc(F)c(-c2ccc(C(=O)NS(=O)(=O)c3ccc[nH]c3=O)c(Oc3c(C)cc(C)cc3C)n2)c1 [Compound 762, 6-(2-fluoro-5-methoxy-phenyl)-N-[(2-oxo-1H-pyridin-3-yl)sulfonyl]-2-(2,4,6-trimethylphenoxy)pyridine-3-carboxamide]
+ (“+” means greater than 10 uM)	–	Cc1cc(C)c(Oc2nc(-c3ccncc3F)ccc2C(=O)NS(=O)(=O)c2cccc(N)n2)c(C)c1 [Compound 514, N-[(6-amino-2-pyridyl)sulfonyl]-6-(3-fluoro-4-pyridyl)-2-(2,4,6-trimethylphenoxy)pyridine-3-carboxamide]
+++ (“+++” means <3 uM)	–	CCOc1ccc(-c2ccc(C(=O)NS(=O)(=O)c3nccnc3N)c(Oc3ccc(C)cc3C)n2)cc1 [Compound 434, N-(3-aminopyrazin-2-yl)sulfonyl-2-(2,4-dimethylphenoxy)-6-(4-ethoxyphenyl)pyridine-3-carboxamide]
++ (“++” means between 3 uM and 10 uM)	–	Cc1cc(C)c(Oc2nc(-c3cc(O)cc(F)c3)ccc2C(=O)NS(=O)(=O)c2cccc(N)n2)c(C)c1 [Compound 505, N-[(6-amino-2-pyridyl)sulfonyl]-6-(3-fluoro-5-hydroxy-phenyl)-2-(2,4,6-trimethylphenoxy)pyridine-3-carboxamide]
–	< 3000	C[C@@H]1CN(c2nc(-c3ccccc3F)ccc2C(=O)NS(=O)(=O)c2ccc[nH]c2=O)C(C)(C)C1 [Compound 2542, 6-(2-fluorophenyl)-N-[(2-oxo-1H-pyridin-3-yl)sulfonyl]-2-[(4S)-2,2,4-trimethylpyrrolidin-1-yl]pyridine-3-carboxamide]
+++ (“+++” means <3 uM)	–	CCCOc1cc(-c2ccc(C(=O)NS(=O)(=O)c3cccc(N)n3)c(Oc3c(C)cc(C)cc3C)n2)ccc1Cl [Compound 535, N-[(6-amino-2-pyridyl)sulfonyl]-6-(4-chloro-3-propoxy-phenyl)-2-(2,4,6-trimethylphenoxy)pyridine-3-carboxamide]
+++ (“+++” means <3 uM)	–	Cc1cccc(C)c1Cn1nc(-c2ccc(C(F)(F)F)cc2)cc1C(=O)NS(=O)(=O)c1ccccc1 [Compound 316, N-(benzenesulfonyl)-2-[(2,6-dimethylphenyl)methyl]-5-[4-(trifluoromethyl)phenyl]pyrazole-3-carboxamide]
–	3000 to 10000	COc1ccc(-c2ccc(C(=O)NS(=O)(=O)c3ccc[nH]c3=O)c(N3C[C@@H](C)CC3(C)C)n2)cc1 [Compound 2080, 6-(4-methoxyphenyl)-N-[(2-oxo-1H-pyridin-3-yl)sulfonyl]-2-[(4S)-2,2,4-trimethylpyrrolidin-1-yl]pyridine-3-carboxamide]
–	> 10000	CC1CN(c2ncccc2C(=O)NS(=O)(=O)c2cccc(NCC3CCCO3)n2)C(C)(C)C1 (stereo not drawn) [Compound 2131, N—[[6-(tetrahydrofuran-2-ylmethylamino)-2-pyridyl]sulfonyl]-2-(2,2,4-trimethylpyrrolidin-1-yl)pyridine-3-carboxamide]
–	< 3000	CCCN(CCOC)c1cccc(S(=O)(=O)NC(=O)c2cccnc2N2CC(C)CC2(C)C)n1 (stereo not drawn) [Compound 2343, N—[[6-[2-methoxyethyl(propyl)amino]-2-pyridyl]sulfonyl]-2-(2,2,4-trimethylpyrrolidin-1-yl)pyridine-3-carboxamide]
–	< 3000	CC1CN(c2ncccc2C(=O)NS(=O)(=O)c2cccc(Oc3cccc(F)c3)n2)C(C)(C)C1 (stereo not drawn) [Compound 2332, N—[[6-(3-fluorophenoxy)-2-pyridyl]sulfonyl]-2-(2,2,4-trimethylpyrrolidin-1-yl)pyridine-3-carboxamide]
+++ (“+++” means <3 uM)	–	Cc1cc(C)c(Oc2nc(C(C)(C)C)cnc2C(=O)NS(=O)(=O)c2cccc(N)c2)c(C)c1 [Compound 141, N-(3-aminophenyl)sulfonyl-5-tert-butyl-3-(2,4,6-trimethylphenoxy)pyrazine-2-carboxamide]
++ (“++” means between 3 uM and 10 uM)	–	CC(C)(C)c1ccc(C(=O)NS(=O)(=O)c2cccc(N)n2)c(C2=CCCCC2)n1 [Compound 478, N-[(6-amino-2-pyridyl)sulfonyl]-6-tert-butyl-2-(cyclohexen-1-yl)pyridine-3-carboxamide]
